From patent US11110171B2, “PD-1 related cancer therapy” (New York University, priority 2017, dated 2021)

Key:
[1] = test system: phosphorylation of ERK, PLCγ and ZAP70 in Jurkat T cells; test: Immunoblot of PD-1 signaling in Jurkat T cells stimulated with anti-CD3 or anti-CD3+PDL2 beads; format: cell-based, human; details: SAP-deficient (SAP KD) Jurkat T cells, SHP099 10 uM for one hour, anti-CD3+PDL2 beads 5 minutes
[2] = test system: IL-2 secretion of human CD3+ T cells; test: IL-2 secretion (ELISA) of primary human CD3+ T cells stimulated with anti-CD3 or anti-CD3+PDL2 beads; format: cell-based; details: control or SAP KD siRNA, anti-CD3+PDL2 beads 24 hours
Experimental: FIG. 13. (a) Jurkat T cells were transfected with non-targeting siRNA control and siRNA to SAP, followed by immunoblot analysis. […] Media was harvested and IL-2 levels were measured (ELISA). * P<0.05, NS not significant, n=3, unpaired t test. (c) control vector or SAP-expressing vector for 48 hours and samples were analyzed for SAP expression by immunoblotting. (d) Cell expressing SAP were stimulated overnight and CD69 expression levels were recorded by FACS. (e) T cells from XLP patients and healthy controls were tested for PD-1 expression by FACS analysis. For FIG. 7b 13b, the bars from left to right for each set are: Control, CD3, and CD3+PDL2.
By contrast, overexpression of SAP-GFP (FIG. 13c and FIG. 5b) abrogated the ability of PD-1 to inhibit anti-CD3-induced IL-2 secretion (FIG. 5c), CD69 up regulation (FIG. 5d and FIG. 13d), IFN-γ release (FIG. 5e), and T cell adhesion to fibronectin-coated wells (FIG. 5f). Thus, SAP appears to be a negative regulator of PD-1 signaling and function in T cells.
Primary human T cells were isolated from whole blood using RosetteSep (Stemcell) followed by Ficoll-Paque, according to the manufacturer's instructions. The cells were maintained in enriched media (HEPES 25 mM, Sodium pyruvate 100 mM, Nonessential amino acid, and L-Glutamine) at 5% C02 and 37° C. […]

CC1(N)CCN(c2cnc(-c3cccc(Cl)c3Cl)c(N)n2)CC1.Cl [SHP099]
PD-1's ability to inhibit the phosphorylation of ERK, PLCγ and ZAP70 [1]: abrogated
PD-1's ability to inhibit IL-2 secretion [2]: abrogation
